The text below walks through data of US9945845B2, “Methods of screening using amphibians” (priority 2009, dated 2018).

The test system of data set [1] is blood vessel development and/or lymphangiogenesis in Xenopus embryos. It is filed as in vivo, Xenopus laevis. Conditions: for lymph vessel development phenotype (vegfr3 expression, in words): 20 μM from stage 31, fixed at stage 42; for ALH phenotype: anterior lymph heart; for ALS phenotype: anterior lymph sac; for PLV phenotype: posterior lymph vessels; for blood vessel development phenotype (apj expression, in words): 20 μM from stage 31, fixed at stage 35/36; for ISV phenotype: intersomitic vessels; for PCV phenotype: posterior cardinal vein; for VVN phenotype: vitelline vein network. The procedure:
All chemicals were purchased from Sigma and 10-mM stock solutions in DMSO were prepared. Chemicals were used at a final concentration of 20 μM in screening medium to treat homozygous albino Xenopus embryos, which lack natural pigmentation. Chemical treatments of embryos (n=7 per well) was initiated at stage 31 (37 hpf) and terminated at stages 35/36 (50 hpf) or 42 (80 hpf). Embryos were fixed in 4% paraformaldehyde and processed for whole mount in situ hybridization.
Where albino embryos were used, the bleaching step was omitted. Semi-automated whole mount in situ hybridizations were performed using the Biolane HTI machine (Hölle & Hüttner AG, Germany). […] Images were captured using a stereomicroscope (SteREO Lumar V12; Carl Zeiss) equipped with a digital camera (AxioCam Color; Carl Zeiss). Composite figures were organized and labeled using Adobe Photoshop CS2 and Adobe Illustrator CS software.
Edema formation or late-stage lethality may result from excretory system defects, (cardio)vascular and/or lymphatic vascular pathologies. […] Embryos were fixed for in situ hybridization either at stage 35/36 to analyze vasculogenesis and intersomitic vein angiogenesis defects or at stage 42 to evaluate possible defects in lymph vessel development (FIGS. 3-5).

The test system of data set [2] is Xenopus embryos. Conditions: for Lethality (NF): compounds causing edema, treatment from stage 31, scored to stage 47; for Embr. phen.: embryonic phenotype in the primary screen; for Type of edema Periocular: * = causing bulging eyes, # = bilateral, causing narrow-set eyes; for Lethality: — = no stage of lethality given; for Type of edema Ventral: ‡ = edemas also detected in the gut; for Onset (NF): onset of edema, Nieuwkoop & Faber stage. Put shortly:
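Stage 31 (37 hpf) Xenopus embryos, five per well, exposed to 20 µM compound in 1% DMSO at 23 °C for 4 days. Edema, lethality and other external phenotypes were scored daily by two investigators at stages 39, 41, 45 and 47.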

Data set [3] concerns LEC. Kind of data set: cells. Conditions: 1 μM in 0.1% DMSO. The format is cell-based, human. The procedure:
(§1) Human umbilical vein endothelial cells (HUVEC) were purchased from PromoCell. […] HUVEC and LEC were cultured in endothelial basal medium EBM (Cambrex) supplemented with 20% fetal bovine serum (Invitrogen), antibiotic-antimycotics (100 U/ml penicillin, 100 μg/ml streptomycin, 250 ng/ml amphotericin; Invitrogen). 2 mM L-glutamine (Invitrogen), 10 μg/ml hydrocortisone (Fluka) and 25 μg/ml N^6,2′-O-dibutyryladenosine 3′,5′-cyclic monophosphate sodium salt (Fluka) for up to eleven passages.
(§2) The effect of the selected chemicals on the formation of tube-like structures was performed as follows. […] After overnight incubation at 37° C. the treated cell cultures were fixed with 4% paraformaldehyde. Each chemical treatment was performed in triplicate and the experiment was repeated at least three times. Three representative images of hotspots with tube-like structures were taken per well using a digital camera (AxioCam MRm, Carl Zeiss) mounted on an inverted microscope (Axiovert 200M, Carl Zeiss). The length of the tube-like structures was measured using the IPLab software (BD Biosciences). For each experimental condition, results are represented as average total tube length (μm) per area (three image fields).
(§3) The effects of the selected compounds on endothelial tube formation was assessed after over treatment of LEC and HUVEC cultures at a compound concentration of 1 μM in 0.1% DMSO. The length of the tube-like structures was measured using the IPLab software.

Data set [4] deals with HUVEC. Kind of data set: HUVEC tube formation assay. The format is cell-based, human. Conditions: 1 μM in 0.1% DMSO, overnight. The method, then:
as §1, §2, §3

The mark [5] stands for this setting: 20 μM, 1% DMSO, treatment from stage 31.

Molecules are shown by their SMILES. “Also recorded” adds a separate entry of the source.

As for `CN(C)c1cc2c(Nc3ccc4c(cnn4Cc4ccccc4)c3)ncnc2cn1` [GW2974, N4-(1-Benzyl-1H-indazol-5-yl)-N6,N6-dimethyl-pyrido[3,4-d)pyrimidine4-4,6-diamine], in data set [1], the “lymph vessel development phenotype (vegfr3 expression, in words)” value is reported as “inhibiting preferentially lymphatic vascular development; also recorded: lymphangiogenesis was largely suppressed”. For the same compound, in data set [1] (Xenopus embryos), the Blood vessel phenotype entry is reported as “normal”, the ALH phenotype entry is listed as “stunted”, the ALS phenotype entry is “impaired” and the PLV phenotype result is given as “hypoplastic”. Moreover, in data set [2] (setting [5]), the “edema or other phenotype in compound-treated Xenopus embryos/tadpoles (in words)” value is “enlarged lymph hearts” and the “Onset (NF)” value is recorded as 41/42. Moreover, the “Lethality (NF)” value in data set [2] (20 μM, 1% DMSO) was determined as 47 NF. Besides, in data set [2], the Embr. phen. result was “EDE”. Besides, in data set [2] (embryonic stage), the Lymph heart enlargement is 45 embryonic stages according to Nieuwkoop and Faber (NF); the “Type of edema Pericordial” value is 41/42; the “Type of edema Periocular” value is 41/42; the Lethality was 47 embryonic stages according to Nieuwkoop and Faber (NF). In addition, in data set [2] (embryonic stage), the “Type of edema Ventral” value was 41/42. Moreover, the LEC tube formation entry in data set [3] (overnight) is listed as “− (−, moderate inhibition (50-85% of control):)”. The HUVEC tube formation result in data set [4] is on record as “− (−, moderate inhibition (50-85% of control):)”.
As to `CN(C)S(=O)(=O)c1ccc2c(c1)C(=Cc1cc3c([nH]1)CCCC3)C(=O)N2` [SU 6656, 2,3-Dihydro-N,N-dimethyl-2-oxo-3-[(4,5,6,7-tetrahydro-1H-indol-2-yl)methylene]-1H-indole-5-sulfonamide], the “lymph vessel development phenotype (vegfr3 expression, in words)” value in data set [1] is “inhibiting preferentially lymphatic vascular development; also recorded: poorly developed, stunted lymphatics emerging from the ALS and ALH and hypoplastic PLV”. In data set [1] (Xenopus embryos), the Blood vessel phenotype result is “normal”, the ALH phenotype result is recorded as “dysplastic”, the ALS phenotype result is on record as “stunted” and the PLV phenotype result is “hypopiastic”. Moreover, the “Lethality (NF)” value in data set [2] (20 μM, 1% DMSO) is given as 46 NF. Also, in data set [2] (embryonic stage), the “Type of edema Pericordial” value is 41/42, the “Type of edema Proctodeal” value is 39/40, the “Type of edema Pronephric” value is 39/40 and the “Type of edema Periocular” value was 41/42*. Further, in data set [2] (embryonic stage), the Lethality was 46 embryonic stages according to Nieuwkoop and Faber (NF); the “Type of edema Ventral” value is listed as 39/40. The “Onset (NF)” value in data set [2] (setting [5]) was 39/40.
With `OCc1ccc(-c2nn(Cc3ccccc3)c3ccccc23)o1` [YC-1, 3-(5′-Hydroxymethyl-2′-fulyl)-1-benzyl indazole], the “blood vessel development phenotype (apj expression, in words)” value in data set [1] was “dispersed, punctuated patterns of VVN endothelia”. Besides, in data set [1] (Xenopus embryos), the Lymphatic phenotype entry is recorded as “normal”, the ISV phenotype result is reported as “normal”, the PCV phenotype entry was “normal” and the VVN phenotype result was “hypoplastic”. In data set [2], the Embr. phen. entry is “EDE”. Moreover, the “Onset (NF)” value in data set [2] (setting [5]) turned out to be 45 NF.
Turning to `COc1cc(-c2ccc(=O)[nH]n2)ccc1OC(F)F` [Zardaverine, 6-(4-Difluoromethoxy-3-methoxyphenyl)-3(2H)-pyridazinone], the “blood vessel development phenotype (apj expression, in words)” value in data set [1] is given as “only interfered with the assembly of the VVN”. In data set [1] (Xenopus embryos), the ISV phenotype entry was “normal”, the PCV phenotype entry is given as “normal” and the VVN phenotype entry was “hypoplastic”. Further, the “Lethality (NF)” value in data set [2] (20 μM, 1% DMSO) was determined as 43 NF. In data set [2] (embryonic stage), the “Type of edema Pericordial” value was 39/40; the “Type of edema Pronephric” value is 41/42; the Lethality is 43 embryonic stages according to Nieuwkoop and Faber (NF). Also, the “Onset (NF)” value in data set [2] (setting [5]) was 39/40.
Take `CC[C@@H]1/C=C/C=C/C[C@H](C)[C@H](O)[C@](C)(O)C(=O)[C@H](C)[C@@H](O)[C@H](C)C(=O)[C@H](C)[C@@H](O)[C@H](C)/C=C/C(=O)O[C@H]2[C@@H](C)[C@@H](CC1)O[C@@]1(CC[C@@H](C)[C@@H](C[C@H](C)O)O1)[C@@H]2C` [oligomycin A]: the “effect on LEC tube formation (in words)” value in data set [3] is “preferentially blocked tube formation in LEC rather than HUVEC cultures”.
